Assay results from patent US20120135089A1, “E3 LIGASE INHIBITORS” (priority 2009, published 2012).
Entries after “also recorded” stand apart in the source; their conditions may differ.

Columns and labels:
[1] = system: Mdm2, p21, puma, and bax transcripts; test: qRT-PCR of p53 target genes in RKO cells; type: cell-based, human; conditions: 5 μg/ml MEL23, 24 or 48 hours
Procedure: (§1) RKO cells were treated with 5 μg/ml (14 μM) MEL23 for 24 or 48 hours. Quantitative real-time PCR was used to analyze the mRNA levels of the Mdm2, p21, puma, and bax transcripts. All values are normalized to no treatment, DMSO control. The figure is representative of three independent experiments and standard error bars represent intra-experimental error.
as §1, with “48 hours, 0.1 μg/ml (0.2 μM) doxorubicin for 48 hours, or 10 μM ALLN for 24” for “48”, “analyze” for “analyze the”, “were” for “are”, “treatment (NT),” for “treatment,”
RNA was harvested using RNeasy Mini kit (Qiagen, Cat. No. 74104) and first-strand cDNA synthesis was performed with the TaqMan Reverse Transcription Reagents for qRT-PCR (Applied Biosystems Inc., Foster City, Calif., Cat. No. N8080234) according to the manufacturers' protocol. Samples were analyzed by quantitative real-time PCR on an ABI 7300 real-time PCR instrument (Applied Biosystems) using the ΔΔCT method. PCR reaction mixtures contained 75 ng of cDNA, 1×SYBR Green Mix (Applied Biosystems, Cat. No. 4367659), and 100 nM primers. Values were normalized to those of the hprt1 housekeeping gene (47).

[2] = biological target: T1, Flag-Mdm2-HA-MdmX complex (Homo sapiens, UniProt O15151+Q00987); test: in vitro ubiquitination assay, Flag-Mdm2/HA-MdmX complex; type: biochemical
T1 construct: unlike the full-length complex, which was produced through co-expression of Mdm2 and MdmX in SF9 cells; made in house; host or cells: Sf9 insect cells, co-infection; purified on M2-agarose, then HA-agarose
T1 sequence (Q00987 whole entry): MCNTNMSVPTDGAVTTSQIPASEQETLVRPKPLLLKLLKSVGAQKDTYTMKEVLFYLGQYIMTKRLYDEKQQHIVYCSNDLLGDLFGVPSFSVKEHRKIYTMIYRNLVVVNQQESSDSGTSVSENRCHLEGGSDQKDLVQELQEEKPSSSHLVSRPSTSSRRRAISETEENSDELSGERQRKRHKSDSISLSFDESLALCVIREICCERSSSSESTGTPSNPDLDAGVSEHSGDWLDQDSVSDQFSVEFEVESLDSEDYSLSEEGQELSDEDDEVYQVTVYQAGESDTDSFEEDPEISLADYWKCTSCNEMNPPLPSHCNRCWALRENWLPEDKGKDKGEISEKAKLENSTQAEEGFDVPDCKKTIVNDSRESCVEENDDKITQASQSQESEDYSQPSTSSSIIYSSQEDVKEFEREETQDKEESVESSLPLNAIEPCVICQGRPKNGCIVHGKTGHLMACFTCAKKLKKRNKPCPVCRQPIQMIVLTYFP
T1 sequence (O15151 whole entry): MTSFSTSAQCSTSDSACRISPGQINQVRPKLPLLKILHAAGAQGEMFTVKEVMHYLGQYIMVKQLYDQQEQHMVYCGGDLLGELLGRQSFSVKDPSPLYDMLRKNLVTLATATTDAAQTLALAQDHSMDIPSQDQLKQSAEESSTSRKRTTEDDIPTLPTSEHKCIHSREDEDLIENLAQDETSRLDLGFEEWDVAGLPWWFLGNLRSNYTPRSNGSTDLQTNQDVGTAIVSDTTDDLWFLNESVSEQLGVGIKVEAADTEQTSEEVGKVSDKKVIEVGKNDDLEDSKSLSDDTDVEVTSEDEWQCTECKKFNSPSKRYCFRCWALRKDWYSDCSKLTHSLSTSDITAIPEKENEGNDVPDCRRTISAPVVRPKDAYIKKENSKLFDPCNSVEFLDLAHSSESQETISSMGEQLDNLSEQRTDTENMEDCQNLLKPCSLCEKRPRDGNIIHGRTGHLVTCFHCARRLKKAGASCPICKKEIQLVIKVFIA
Procedure: These assays were performed with 100 ng of full-length Flag-Mdm2 or 200 ng of Flag-Mdm2/HA-MdmX complexes (100 ng of each protein as each are present in a 1:1 ratio, when purified), ^32P-labeled ubiquitin, UbCH5c, and E1. Following a 30-minute incubation at 37° C., reactions were terminated and resolved on a SDS-PAGE gel followed by autoradiography. PC indicates positive control, and NC indicates negative control with UbCH5C eliminated from the reaction. The gels were quantified by phosphoimaging using ImageQuant software (GE Healthcare Bio-Sciences Corp., Piscataway, N.J.). […]
Ubiquitin reactions contain 50 ng E1, 1 μg PK-ubiquitin, 50 ng His-UbCH5C, and 100 ng Flag-Mdm2. […] The products were resolved by SDS-PAGE and analyzed by Western blotting with anti-p53, anti-Mdm2 SMP14, 2A10, 3G5 mix, or anti-MdmX. […] The graph represents the quantification of the Mdm2-ubiquitin species, normalized to the positive control. […]
Full-length Mdm2 in vitro ubiquitination reactions were performed in 15 μl reaction mixtures containing 50 mM TrisHC1 pH 7.5, 5 mM MgCl2, 2 mM NaF, 2 mM ATP, 0.6 mM DTT, 50 ng E1 (Boston Biochem, Cat. No. E-305), 1 μg PK-ubiquitin, 50 ng His-UbCH5C, and 100 ng Flag-Mdm2. […] The products were resolved by SDS-PAGE and analyzed by Western blot with anti-p53, anti-Mdm2 SMP14, 2A10, 3G5 mix, or anti-MdmX antibodies. […]

[3] = biological target: T2, Mdm2 RING-MdmX RING hetero-complex (Homo sapiens, UniProt O15151+Q00987); test: in vitro ubiquitination assay, Mdm2 RING-MdmX RING; type: biochemical
T2 construct: 500 ng GST-Mdm2 (residues 400-491); GST-MdmX (residues 410-490); made in house
T2 sequence (Q00987 400-491): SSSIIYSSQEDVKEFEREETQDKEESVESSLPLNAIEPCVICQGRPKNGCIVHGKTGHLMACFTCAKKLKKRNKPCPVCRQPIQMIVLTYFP
T2 sequence (O15151 410-490): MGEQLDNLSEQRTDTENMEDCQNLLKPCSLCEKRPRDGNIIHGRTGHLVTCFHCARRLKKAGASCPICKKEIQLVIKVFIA
Procedure: These assays were performed with 100 ng of full-length Flag-Mdm2 or 200 ng of Flag-Mdm2/HA-MdmX complexes (100 ng of each protein as each are present in a 1:1 ratio, when purified), ^32P-labeled ubiquitin, UbCH5c, and E1. Following a 30-minute incubation at 37° C., reactions were terminated and resolved on a SDS-PAGE gel followed by autoradiography. PC indicates positive control, and NC indicates negative control with UbCH5C eliminated from the reaction. The gels were quantified by phosphoimaging using ImageQuant software (GE Healthcare Bio-Sciences Corp., Piscataway, N.J.). […] Reactions were performed as in FIG. 11A except 500 ng GST-Mdm2 (residues 400-491) and GST-MdmX (residues 400-490) were used for ubiquitin polymerization. […] Reactions were performed as in FIG. 11A except with 3 μg of the Roc1/Cul1 ligase complex. Ubiquitination activity of the complex was tested in the presence of increasing concentrations of MEL23 and MEL24.
Radiolabeled in vitro ubiquitination assays were carried out in 30 μl reaction mixtures with ^32P-labeled ubiquitin. 500 ng GST-Mdm2 (residues 400-491) and GST-MdmX (residues 410-490) were used for the RING-RING reactions. The products of the reaction were resolved on a SDS-PAGE gel and visualized by autoradiography.

RKO and RKO-E6 cells = test: Alamar Blue viability assay, RKO and RKO-E6 cells; type: cell-based, human; conditions: 48 hours, dilution series
Procedure: RKO and RKO-E6 cells were seeded in 384-well plates and treated with a dilution series of MEL23 for 48 hours as indicated. Alamar Blue was added for 16 hours and fluorescence determined on a Victor3 Plate Reader. The median percent inhibition of five replicates was determined and normalized to a no treatment control. One standard deviation is shown. […] Cells were seeded in 384-well plates and treated with a dilution series of MEL23 for 48 hours at the indicated concentrations. Alamar Blue was added for 16 hours and fluorescence determined on a Victor3 Plate Reader. The median percent inhibition of five replicates was determined and normalized to a no treatment control. One standard deviation is shown.
Cells were seeded in 384-well black clear-bottom plates (Corning Inc., Corning, N.Y., Cat. No. 07-200-655). Cells were then treated with the indicated concentration of compound. Plates were incubated for 48 hours at 37° C. Alamar Blue (Invitrogen, Cat. No. DAL1100) was added to each well to a final concentration of 10% and incubated at 37° C. for 16 hours. Fluorescence intensity was determined using the Victor3 Plate Reader (PerkinElmer). Median percent survival or growth inhibition was calculated and normalized to a no treatment control.

CCCCn1c(=O)[nH]c(O)c(C2NCCc3c2[nH]c2ccccc32)c1=O (stereo not drawn) [MEL23]
mRNA levels of p53 target genes Mdm2, p21, Bax, puma [1]: increased within 48 hours of treatment; also recorded: increased the transcription of p53 target genes to intermediate levels compared to doxorubicin and ALLN | ligase activity of the Mdm2-MdmX complex in vitro [2]: significantly decreased the overall ligase activity; also recorded: inhibited | activity of the Mdm2-MdmX complex toward p53 in vitro ([2]; Western blot): inhibited the activity of the Mdm2-MdmX complex toward p53 | ubiquitination of the Mdm2 RING-MdmX RING hetero-complex [3]: inhibited | RKO cell survival (RKO and RKO-E6 cells): decreased in a dose-dependent manner | RKO-E6 cell survival (RKO and RKO-E6 cells): remained largely unaffected
